Data taken from PubChem BioAssay AID330 (DTP/NCI, 2004).
Values joined by “and” are separate entries in the source; they are usually repeats but may differ in a detail not shown here. Identical values can stand only once. Toxic doses and inconclusive results are not listed. Square brackets hold non-standard residues; d marks the D form. Peptide text beside a SMILES is read from it. ξ: configuration not given here. ξAbu = CCC(N)C(=O)O

System: P388 leukemia ip, CD2F1 mice, survival T/C
Assay: NCI In Vivo Anticancer Drug Screen. Data for tumor model P388 Leukemia (intraperitoneal) in CD2F1 (CDF1) mice
Details: endpoint: median survival time, higher = longer survival
How it was run: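 Mice carrying the transplanted tumor received test compound or vehicle. Survival was recorded in each group, and the value is the treated-group measurement divided by that of the vehicle-treated control group.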

COc1cc(C/C(=C\c2ccc3c(c2)OCO3)[N+](=O)[O-])ccc1OCc1ccccc1
T/C (dose: 100.0 mg/kg/injection, schedule: Q01DX001 (ip), vehicle: Klucel (hydroxypropylcellulose) (HPC)): 98 % of control
T/C (dose: 200.0 mg/kg/injection, schedule: Q01DX001 (ip), vehicle: Klucel (hydroxypropylcellulose) (HPC)): 96 % of control
T/C (dose: 400.0 mg/kg/injection, schedule: Q01DX001 (ip), vehicle: Klucel (hydroxypropylcellulose) (HPC)): 96 % of control

COC12[C@@H]3N[C@@H]3CN1C1=C(C(=O)C(NCCSSCCNC3=C(C)C(=O)C4=C(C3=O)C(COC(N)=O)[C@]3(OC)C5N[C@@H]5CN43)=C(C)C1=O)[C@@H]2COC(N)=O (stereo partly drawn)
T/C (dose: 3.12 mg/kg/injection, schedule: Q01DX001 (ip), vehicle: DMSO): 157 % of control
T/C (dose: 6.25 mg/kg/injection, schedule: Q01DX001 (ip), vehicle: DMSO): 161 % of control
T/C (dose: 12.5 mg/kg/injection, schedule: Q01DX001 (ip), vehicle: DMSO): 177 % of control
T/C (dose: 25.0 mg/kg/injection, schedule: Q01DX001 (ip), vehicle: DMSO): 233 % of control

N#Cc1ccc(-c2nn[nH]n2)cc1
T/C (dose: 50.0 mg/kg/injection, schedule: Q01DX005 (ip), vehicle: Klucel (hydroxypropylcellulose) (HPC)): 102 % of control
T/C (dose: 100.0 mg/kg/injection, schedule: Q01DX005 (ip), vehicle: Klucel (hydroxypropylcellulose) (HPC)): 95 % of control
T/C (dose: 200.0 mg/kg/injection, schedule: Q01DX005 (ip), vehicle: Klucel (hydroxypropylcellulose) (HPC)): 96 % of control

COc1ccc(-c2cc(-c3cc(-c4ccc(OC)cc4)nc(N)n3)nc(N)n2)cc1
T/C (dose: 60.0 mg/kg/injection, schedule: Q01DX005 (ip), vehicle: saline): 105 % of control
T/C (dose: 120.0 mg/kg/injection, schedule: Q01DX005 (ip), vehicle: saline): 102 % of control
T/C (dose: 240.0 mg/kg/injection, schedule: Q01DX005 (ip), vehicle: saline): 105 % of control

C=CCN1CSC(=S)N(CC=C)C1
T/C (dose: 25.0 mg/kg/injection, schedule: Q01DX009 (ip), vehicle: saline with Tween-80): 98 % of control
T/C (dose: 50.0 mg/kg/injection, schedule: Q01DX009 (ip), vehicle: saline with Tween-80): 119 % of control and 94 % of control

c1ccc2c(CN3CCCCC3)c[nH]c2c1
T/C (dose: 50.0 mg/kg/injection, schedule: Q04DX003 (ip), vehicle: saline with Tween-80): 100 % of control
T/C (dose: 100.0 mg/kg/injection, schedule: Q04DX003 (ip), vehicle: saline with Tween-80): 90 % of control

O=C1OC(CO)C(O)C2OC(=O)c3c(c(O)c(O)c(O)c3-c3c(O)c(O)c(O)c4c3C(=O)OC2C4O)-c2c1cc(O)c(O)c2O (stereo not drawn)
T/C (dose: 1.56 mg/kg/injection, schedule: Q01DX009 (ip), vehicle: saline): 105 % of control
T/C (dose: 3.12 mg/kg/injection, schedule: Q01DX009 (ip), vehicle: saline): 105 % of control
T/C (dose: 6.25 mg/kg/injection, schedule: Q01DX009 (ip), vehicle: saline): 90 % of control

COc1cccc2sc(-n3c(C)nc4ccccc4c3=O)nc12
T/C (dose: 60.0 mg/kg/injection, schedule: Q01DX005 (ip), vehicle: Klucel (hydroxypropylcellulose) (HPC)): 95 % of control
T/C (dose: 120.0 mg/kg/injection, schedule: Q01DX005 (ip), vehicle: Klucel (hydroxypropylcellulose) (HPC)): 87 % of control
T/C (dose: 240.0 mg/kg/injection, schedule: Q01DX005 (ip), vehicle: Klucel (hydroxypropylcellulose) (HPC)): 87 % of control

COP(=S)(OC)Oc1ccc(S(N)(=O)=O)cc1
T/C (dose: 100.0 mg/kg/injection, schedule: Q04DX002 (ip), vehicle: saline with Tween-80): 102 % of control
T/C (dose: 200.0 mg/kg/injection, schedule: Q04DX002 (ip), vehicle: saline with Tween-80): 98 % of control
T/C (dose: 400.0 mg/kg/injection, schedule: Q04DX002 (ip), vehicle: saline with Tween-80): 98 % of control

CCC(N)C(=O)NCC(=O)NCC(=O)O (stereo not drawn) (H-[ξAbu]-Gly-Gly-OH)
T/C (dose: 50.0 mg/kg/injection, schedule: Q01DX005 (ip), vehicle: saline): 103 % of control
T/C (dose: 100.0 mg/kg/injection, schedule: Q01DX005 (ip), vehicle: saline): 103 % of control
T/C (dose: 200.0 mg/kg/injection, schedule: Q01DX005 (ip), vehicle: saline): 103 % of control

Cc1c(Cl)ccc2c(C(O)CBr)cc(-c3ccccc3)nc12 (stereo not drawn)
T/C (dose: 100.0 mg/kg/injection, schedule: Q01DX009 (ip), vehicle: saline with Tween-80): 103 % of control
T/C (dose: 200.0 mg/kg/injection, schedule: Q01DX009 (ip), vehicle: saline with Tween-80): 109 % of control
T/C (dose: 400.0 mg/kg/injection, schedule: Q01DX009 (ip), vehicle: saline with Tween-80): 100 % of control

CCS(=O)(=O)/C=C\S(=O)(=O)CC
T/C (dose: 1.56 mg/kg/injection, schedule: Q04DX003 (ip), vehicle: Klucel (hydroxypropylcellulose) (HPC)): 100 % of control
T/C (dose: 3.12 mg/kg/injection, schedule: Q04DX003 (ip), vehicle: Klucel (hydroxypropylcellulose) (HPC)): 98 % of control
T/C (dose: 6.25 mg/kg/injection, schedule: Q04DX003 (ip), vehicle: Klucel (hydroxypropylcellulose) (HPC)): 100 % of control

CC(C)CC(O)C(CC(=O)Nc1ccccc1)S(=O)(=O)c1ccccc1 (stereo not drawn)
T/C (dose: 50.0 mg/kg/injection, schedule: Q01DX005 (ip), vehicle: saline with Tween-80): 100 % of control
T/C (dose: 100.0 mg/kg/injection, schedule: Q01DX005 (ip), vehicle: saline with Tween-80): 92 % of control
T/C (dose: 200.0 mg/kg/injection, schedule: Q01DX005 (ip), vehicle: saline with Tween-80): 86 % of control
